Assays:
[1] = molecular target: T1, 11-beta-hydroxysteroid dehydrogenase 1 (Homo sapiens, UniProt P28845); test: Inhibition of 11beta-HSD1 (unknown origin) using 3H-cortisone as substrate by scintillation proximity assay
hERG (KCNH2) = hERG (KCNH2) (Homo sapiens, UniProt Q12809); test: Inhibition of human ERG expressed in CHO cells at 30 uM at -80 mV holding potential by automated patch clamp assay relative to control; format: toxicity, cell-based; details: CHO cells expressing human ERG
PXR (NR1I2) [2] = molecular target: T2, PXR (NR1I2) (Homo sapiens, UniProt O75469); test: Activation of human PXR assessed as induction of PXR activity at 10 uM relative to control; details: read-out: Activity
T2 sequence (O75469 whole entry): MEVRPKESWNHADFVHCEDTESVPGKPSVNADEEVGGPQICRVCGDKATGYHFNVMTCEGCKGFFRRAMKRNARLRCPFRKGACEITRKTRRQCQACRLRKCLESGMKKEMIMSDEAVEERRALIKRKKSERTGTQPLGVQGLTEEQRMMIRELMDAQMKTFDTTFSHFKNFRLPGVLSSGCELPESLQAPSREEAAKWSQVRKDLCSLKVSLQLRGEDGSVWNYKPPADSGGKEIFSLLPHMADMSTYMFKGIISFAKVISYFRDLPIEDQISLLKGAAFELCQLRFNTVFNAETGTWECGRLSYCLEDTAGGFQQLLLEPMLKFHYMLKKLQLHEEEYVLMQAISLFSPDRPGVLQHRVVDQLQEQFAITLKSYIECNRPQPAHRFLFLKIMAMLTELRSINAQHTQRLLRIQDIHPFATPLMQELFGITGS

PXR (NR1I2) [3] = molecular target: T3, PXR (NR1I2) (Rattus norvegicus, UniProt Q9R1A7); test: Activation of rat PXR assessed as induction of PXR activity at 10 uM relative to control; details: read-out: Activity
T3 sequence (Q9R1A7 whole entry): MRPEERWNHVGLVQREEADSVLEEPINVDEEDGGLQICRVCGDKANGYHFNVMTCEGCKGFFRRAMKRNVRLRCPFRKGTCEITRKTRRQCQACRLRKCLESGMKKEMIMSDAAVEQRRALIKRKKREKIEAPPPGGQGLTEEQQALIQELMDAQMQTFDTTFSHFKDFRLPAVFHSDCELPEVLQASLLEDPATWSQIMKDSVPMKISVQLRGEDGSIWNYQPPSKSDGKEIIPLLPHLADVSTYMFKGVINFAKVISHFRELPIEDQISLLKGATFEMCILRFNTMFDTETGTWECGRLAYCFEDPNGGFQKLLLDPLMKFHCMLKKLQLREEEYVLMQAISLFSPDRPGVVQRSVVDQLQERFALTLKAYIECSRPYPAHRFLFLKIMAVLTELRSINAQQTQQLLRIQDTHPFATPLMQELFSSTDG

[4] = molecular target: T1, 11-beta-hydroxysteroid dehydrogenase 1; test: Inhibition of 11beta-HSD1 in human PBMC cells using 3H-cortisone as substrate assessed as conversion of cortisone to cortisol by ELISA; format: cell-based
[5] = molecular target: T1, 11-beta-hydroxysteroid dehydrogenase 1; test: Inhibition of 11beta-HSD1 (unknown origin)

Sequence of hERG (KCNH2) (Q12809 whole entry): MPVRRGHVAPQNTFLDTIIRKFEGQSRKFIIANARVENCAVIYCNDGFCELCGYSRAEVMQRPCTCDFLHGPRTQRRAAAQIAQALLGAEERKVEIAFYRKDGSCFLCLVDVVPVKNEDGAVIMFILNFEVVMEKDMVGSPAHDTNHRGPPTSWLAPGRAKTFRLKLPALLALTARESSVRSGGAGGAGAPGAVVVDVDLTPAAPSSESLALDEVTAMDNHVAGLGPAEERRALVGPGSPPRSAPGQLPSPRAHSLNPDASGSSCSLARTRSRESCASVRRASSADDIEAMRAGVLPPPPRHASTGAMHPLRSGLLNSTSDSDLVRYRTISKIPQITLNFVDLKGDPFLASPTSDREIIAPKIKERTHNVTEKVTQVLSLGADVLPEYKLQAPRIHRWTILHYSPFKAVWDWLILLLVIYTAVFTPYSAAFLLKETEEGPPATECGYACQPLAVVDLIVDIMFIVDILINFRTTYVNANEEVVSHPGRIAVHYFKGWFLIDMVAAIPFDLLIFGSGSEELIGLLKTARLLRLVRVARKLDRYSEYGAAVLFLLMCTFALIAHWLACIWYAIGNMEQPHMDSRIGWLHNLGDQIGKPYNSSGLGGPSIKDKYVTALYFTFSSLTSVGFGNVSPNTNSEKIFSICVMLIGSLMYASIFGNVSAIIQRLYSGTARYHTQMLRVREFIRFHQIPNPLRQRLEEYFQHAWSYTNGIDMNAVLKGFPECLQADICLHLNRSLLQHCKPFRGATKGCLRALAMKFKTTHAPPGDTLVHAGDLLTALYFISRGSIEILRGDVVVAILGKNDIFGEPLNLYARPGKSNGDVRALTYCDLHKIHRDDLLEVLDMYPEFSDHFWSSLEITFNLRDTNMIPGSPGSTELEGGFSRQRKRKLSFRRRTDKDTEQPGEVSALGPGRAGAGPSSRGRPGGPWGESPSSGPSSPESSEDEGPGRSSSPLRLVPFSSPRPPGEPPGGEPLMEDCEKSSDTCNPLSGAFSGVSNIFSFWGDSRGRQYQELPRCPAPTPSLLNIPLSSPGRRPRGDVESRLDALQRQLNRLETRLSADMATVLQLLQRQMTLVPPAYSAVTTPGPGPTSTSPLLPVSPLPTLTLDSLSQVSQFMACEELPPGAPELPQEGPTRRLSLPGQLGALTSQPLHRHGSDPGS
T1 sequence (P28845 whole entry): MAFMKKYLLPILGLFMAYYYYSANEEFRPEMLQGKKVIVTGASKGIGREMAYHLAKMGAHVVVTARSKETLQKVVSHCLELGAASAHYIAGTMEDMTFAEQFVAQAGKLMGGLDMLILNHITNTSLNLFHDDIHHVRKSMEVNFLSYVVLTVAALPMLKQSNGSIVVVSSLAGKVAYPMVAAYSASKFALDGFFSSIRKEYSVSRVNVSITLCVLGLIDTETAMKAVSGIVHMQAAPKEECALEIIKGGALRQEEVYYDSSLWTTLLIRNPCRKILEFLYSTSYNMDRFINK

Structure (SMILES)	IC50 [1] [nM]	inhibition at 30 µM (hERG (KCNH2)) [%]	activity at 10 µM (PXR (NR1I2) [2]) [%]	activity at 10 µM (PXR (NR1I2) [3]) [%]	IC50 [4] [nM]	IC50 [5] [nM]
O=C1N(C2CCCCC2)CCC12CCCN2Cc1ccccc1C(F)(F)F (stereo not drawn)	15					
N#Cc1ccnc(-c2ccc(CN3C[C@H](O)C[C@]34CCN(C3CCCCC3)C4=O)cc2)c1	35					
CC(C1CCCCC1)N1C[C@H](O)C[C@]12CCN(C1CCCCC1)C2=O (stereo partly drawn)	5	14	10	58	1.9	
CCNC(=O)c1ccc(-c2ccc(CN3CCCC34CCN(C3CCCCC3)C4=O)cc2)cn1 (stereo not drawn)	23	15	13	31		
CC(C1CCC1)N1C[C@H](O)C[C@]12CCN(C1CCCCC1)C2=O (stereo partly drawn)	7	-15	4.5	9	3.9	
CC(C)CN1CCC[C@@H]1C(=O)NC1CCCCC1						9
O=C1N(C2CCCCC2)CCC12CCCN2Cc1cccc(C(F)(F)F)c1 (stereo not drawn)	40					
CCN1C[C@@H](O)C[C@]12CCN(C1CCCCC1)C2=O	15	11	56	28	21	
O=C1N(C2CCCCC2)CC[C@]12C[C@@H](O)CN2CC1CCCCC1	15	8.1	9	14	7	
O=C1N(C2CCCCC2)CCC12CCCN2Cc1ccc(Cl)cc1 (stereo not drawn)	8	45	46	22		
O=C1N(C2CCCCC2)CC[C@]12C[C@@H](O)CN2CC1CCCC1	30					
O=C1N(C2CCCCC2)CCC12C[C@@H](O)CN2Cc1ccc(Cl)cc1 (stereo partly drawn)	7	27	18	10		
CC1(O)CN(Cc2ccc(Cl)cc2)[C@@]2(CCN(C3CCCCC3)C2=O)C1 (stereo partly drawn)	999	13	9.5	41	> 37	
O=C1N(C23CC4CC(CC(C4)C2)C3)CCC12CCCN2c1ccc(C(F)(F)F)cn1 (stereo not drawn)	> 1000					
CNC(=O)c1ccc(-c2ccc(CN3C[C@H](O)C[C@]34CCN(C3CCCCC3)C4=O)cc2)cn1	3	-14	-0.3	-0.3	7.2	
CC(C1CC1)N1C[C@H](O)C[C@]12CCN(C1CCCCC1)C2=O (stereo partly drawn)	400	-10	1	2	> 37	
CCNC(=O)c1ccc(-c2cc(CN3C[C@H](O)C[C@]34CCN(C3CCCCC3)C4=O)ccc2F)cn1	62				> 37	
N#Cc1ccc(CN2CCCC23CCN(C2CCCCC2)C3=O)cc1 (stereo not drawn)	29					
O=C1N(C2CCCCC2)CCC12CCCN2CC1CC1 (stereo not drawn)	134					
O=C1N(C2CCCCC2)CC[C@]12C[C@H](F)CN2Cc1ccc(Cl)cc1	2	52	48	123	5.1	
O=C1N([C@H]2CC[C@H](O)CC2)CCC12CCCN2Cc1ccc(Cl)cc1 (stereo partly drawn)	30	13	0.5	2		
CN(C)C(=O)c1ccc(-c2ccc(CN3C[C@H](O)C[C@]34CCN(C3CCCCC3)C4=O)cc2)cn1	35					
CCNC(=O)c1ccc(-c2cccc(CN3C[C@H](O)C[C@]34CCN(C3CCCCC3)C4=O)c2)cn1	227				> 37	
O=C1N(C23CC4CC(CC(C4)C2)C3)CCC12CCCN2CC1CCCC1 (stereo not drawn)	51					
N#Cc1ccc(-c2ccc(CN3C[C@H](O)C[C@]34CCN(C3CCCCC3)C4=O)nc2)cc1	230					
CNC(=O)c1ccc(-c2ccc(CN3C[C@H](O)C[C@]34CCN(C3CCCCC3)C4=O)cc2F)cn1	13				9.5	

From ChEMBL document CHEMBL5104129, “Discovery of a novel 2-spiroproline steroid mimetic scaffold for the potent inhibition of 11β-HSD1” (Bioorg Med Chem Lett, 2022)
